One assay deals with Aβ1-40. The assay is described as follows: Measurement of Aβ1-40 in culture medium of 7W WT APP751 CHO cells by ELISA. The format is cell-based, Chinese hamster. To be noted: for activity at 5 µM: Cricetulus griseus, Table 1, 5 μM test compound, CHO cells stably transfected with human APP751, culture medium, ELISA, control DMSO, 0 = no detectable amount; for Aβ1-40 (% of control): CHO cells that overexpress APP751, zero = below the detection limit of the assay. (In general: ELISA stands for enzyme-linked immunosorbent assay.)

The subject of another assay is Aβ1-42. The assay is described as follows: Measurement of Aβ1-42 in culture medium of 7W WT APP751 CHO cells by ELISA. It counts as cell-based, Chinese hamster. To be noted: for activity at 5 µM: Cricetulus griseus, Table 1, 5 μM test compound, CHO cells stably transfected with human APP751, culture medium, ELISA, control DMSO, 0 = no detectable amount, read-out: Aβ1-42 (% of control); for Aβ1-42 (% of control): CHO cells that overexpress APP751, zero = below the detection limit of the assay.
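Note: 5 µM test compound but RI-coded compounds at 10 µM for 24 hours.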

`CC1=C(C(=O)OC2CCCC2)C(c2ccccc2Br)C2=C(CC(C)(C)CC2=O)N1` (stereo not shown) [ST013103, cyclopentyl 4-(2-bromophenyl)-2,7,7-trimethyl-5-oxo-1,4,6,7,8-pentahydroquinoline-3-carboxylate]: the results for the activity at 5 µM with Aβ1-40 and with Aβ1-42 were 0% and 68.2%, respectively.
On to `CCOC(=O)C1=C(N)n2c(s/c(=C\c3ccncc3)c2=O)=C(C#N)C1c1ccncc1` (stereo not shown) [ST024405, ethyl 5-amino-8-cyano-3-oxo-7-(4-pyridyl)-2-(4-pyridylmethylene)-4,7-dihydro-1,3-thiazolidino[3,2-a]pyridine-6-carboxylate], for which the “Aβ1-40 (% of control)” value with Aβ1-40 was 59.66 % of control. For the same compound, the “Aβ1-42 (% of control)” value in the assay with Aβ1-42 was 77.41 % of control.
For `COC(=O)C1=C(C)NC2=C(C(=O)CC(c3ccc(Cl)cc3)C2)C1c1ccc(Cl)c(Cl)c1` (stereo not shown) [ST015215, methyl 4-(3,4-dichlorophenyl)-7-(4-chlorophenyl)-2-methyl-5-oxo-1,4,6,7,8-pentahydroquinoline-3-carboxylate], the results for the activity at 5 µM in the assay with Aβ1-40 and with Aβ1-42 were 23.1% and 39.8%, respectively.
The corresponding values for `CCCOC(=O)C1=C(C)NC2=C(C(=O)CC(C)(C)C2)C1c1cccc(Cl)c1Cl` (stereo not shown) [ST013206, propyl 4-(2,3-dichiorophenyl)-2,7,7-trimethyl-5-oxo-1,4,6,7,8-pentahydroquinoline-3-carboxylate] are 0% and 62.5%.
`CC(C)Oc1ccc(/C=c2\sc3n(c2=O)C(N)=C(C#N)C(c2ccc(OC(C)C)cc2)C=3C#N)cc1` (stereo not shown) [ST025026, 5-amino-7-[4-(methylethoxy)phenyl]-2-{[4-(methylethoxy)phenyl]methylene}-3-oxo-4,7-dihydro-1,3-thiazolidino[3,2-a]pyridine-6,8-dicarbonitrile]: in the assay with Aβ1-40, the “Aβ1-40 (% of control)” value is listed as 26.82 % of control. The “Aβ1-42 (% of control)” value with Aβ1-42 is 0 % of control.
Regarding `CC1=C(C(=O)OCCOc2ccccc2)C(c2ccccc2OC(C)C)C2=C(CCCC2=O)N1` (stereo not shown) [ST014919, 2-phenoxyethyl 2-methyl-4-[2-(methylethoxy)phenyl]-5-oxo-1,4,6,7,8-pentahydroquinoline-3-carboxylate], the values for the activity at 5 µM in the assay with Aβ1-40 and in the assay on Aβ1-42 were 63.4% and 85.1%, respectively.
For the compound `CCOC(=O)C1=CN(c2cc(C)ccc2C)C=C(C(=O)OCC)C1c1cc(OC)c(OC)c(OC)c1` [ST052491, ethyl 1-(2,5-dimethylphenyl)-5-(ethoxycarbonyl)-4-(3,4,5-trimethoxyphenyl)-1,4-dihydropyridine-3-carboxylate], in the assay with Aβ1-40, the “Aβ1-40 (% of control)” value is reported as 70.29 % of control. Also, the “Aβ1-42 (% of control)” value with Aβ1-42 is 28.35 % of control.
For `CC1(C)CC(=O)C2=C(C1)N(Cc1ccccc1)C(N)=C(C#N)C21CCOCC1` [ST014138, 2-amino-7,7-dimethyl-5-oxo-1-benzylspiro[1,4,6,7,8-pentahydroquinoline-4,4′-2′ H-3′,4,5′,6′-tetrahydropyran]-3-carbonitrile], the activity at 5 µM with Aβ1-40 was found to be 64.1%; in the assay with Aβ1-42 it was 65.3%.
The corresponding values for `CCCCCOC(=O)C1=C(C)NC2=C(C(=O)CC(C)(C)C2)C1c1cc2c(cc1Br)OCO2` (stereo not shown) [ST216568, pentyl 4-(6-bromo(2H-benzo[d]1,3-dioxolan-5-yl))-2,7,7-trimethyl-5-oxo-1,4,6,7,8-pentahydroquinoline-3-carboxylate] are 14.8% and 24.7%.
The corresponding values for `CC1=C(C(=O)OC(C)C)C(c2ccc(Cl)cc2)C2=C(CC(C)(C)CC2=O)N1` (stereo not shown) [ST017213, methylethyl 4-(4-chlorophenyl)-2,7,7-trimethyl-5-oxo-1,4,6,7,8-pentahydroquinoline-3-carboxylate] are 44.4% and 91.4%.
The corresponding values for `CC(=O)Oc1ccc(C2C(C(=O)OC(C)C)=C(C)NC3=C2C(=O)CCC3)cc1` (stereo not shown) [ST013192, 4-{2-methyl-3-[(methylethyl)oxycarbonyl]-5-oxo-4-1,4,6,7,8-pentahydroquinolyl} phenyl acetate] are 55.5% and 82.5%.

These data come from patent US20100119599A1 (ARCHER PHARMACEUTICALS, INC., priority 2006, published 2010).
